Laboratory results: US20140128380A1, “METHODS OF MODULATING THE ACTIVITY OF THE MC1 RECEPTOR AND TREATMENT OF CONDITIONS RELATED TO THIS RECEPTOR” (Mimetica Pty Ltd, priority 2009, published 2014)

Target: T1, human MC1R (hMC1R) (Homo sapiens, UniProt Q01726)
T1 construct: purchased Perkin Elmer ES-195-M400UA
Assay: Human MC1R radioligand binding assay (displacement of 125I-labeled NDP-MSH, Perkin Elmer hMC1R membranes)
Settings: displacement of [125I]NDP-MSH, compounds tested as trifluoroacetate or hydrochloride salts or free base
Procedure: Assessments of compound binding to human MC1R (hMC1R)) by displacement of an ^125I-labeled NDP-MSH receptor ligand peptide were performed essentially as described in the data sheets produced by Perkin Elmer to accompany their frozen hMC1R membranes (Perkin Elmer catalog number ES-195-M400UA).
[^125I] NDP-MSH: radiolabeled in house and purified by HPLC:
Na ^125I (0.5 mCi, 17.4 Ci/mg) was added to 50 μL sodium phosphate (50 mM, pH 7.4) in an eppendorf tube precoated with IODOGEN. After incubation for 10 mins the phosphate buffer containing the iodine was added to NDP-MSH (10 ul at 1 mg/mL) in a separate eppendorf tube. This was incubated for a further 10 mins. The iodinated NDP-MSH was purified by HPLC on a Zorbax SB 300 column using solvent A: 0.05% TFA and solvent B: 90% acetonitrile 0.045% TFA with a linear gradient, 0-67% B over 60 mins.
Perkin Elmer frozen hMC1 membranes: catalog number ES-195-M400UA, 0.4 mL/vial; 400 microassays/vial, 0.78 mg/mL protein concentration
Vials of frozen membranes were thawed rapidly immediately before use, diluted with binding buffer and vortexed. Resuspended membranes were kept on ice until they were added to the wells of the plate.
Assays were performed in 96 well polypropylene plates. […] This was incubated for 1 hr at 37° C.

T1 sequence (Q01726 whole entry): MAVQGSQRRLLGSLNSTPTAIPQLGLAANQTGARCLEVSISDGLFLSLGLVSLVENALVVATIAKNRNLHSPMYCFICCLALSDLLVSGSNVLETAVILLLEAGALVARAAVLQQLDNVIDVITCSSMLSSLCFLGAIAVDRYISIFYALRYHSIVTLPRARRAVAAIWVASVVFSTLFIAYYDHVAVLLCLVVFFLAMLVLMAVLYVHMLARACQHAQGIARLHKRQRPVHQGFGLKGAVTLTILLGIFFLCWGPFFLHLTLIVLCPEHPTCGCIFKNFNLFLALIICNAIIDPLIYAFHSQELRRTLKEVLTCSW

IC50, < 10 µM:
CCC(CN1CC[C@@H](CNC(=O)c2ccc3ccccc3c2)N[C@@H](CCN)C1=O)c1ccccc1 (mixture of isomers) [Compound 102, N-(((3S,5S)-3-(2-aminoethyl)-2-oxo-1-(2-phenylbutyl)-1,4-diazepan-5-yl)methyl)-2-naphthamide]
N=C(N)NCCC[C@@H]1N[C@H](CNC(=O)c2ccc3ccccc3c2)CCN(Cc2cc(Cl)cc(Cl)c2)C1=O [Compound 100, N-(((3S,5S)-1-(3,5-dichlorobenzyl)-3-(3-guanidinopropyl)-2-oxo-1,4-diazepan-5-yl)methyl)-2-naphthamide]
O=C(/C=C/c1ccc(Cl)cc1)NC[C@@H]1CCN(CC(c2ccccc2)c2ccccc2)C(=O)[C@H](CCN2CCCCC2)N1 [Compound 101, (E)-3-(4-chlorophenyl)-N-(((3S,5S)-1-(2,2-diphenylethyl)-2-oxo-3-(2-(piperidin-1-yl)ethyl)-1,4-diazepan-5-yl)methyl)acrylamide]
N=C(N)NCCC[C@@H]1N[C@H](CNS(=O)(=O)c2ccc3ccccc3c2)CCN(CC(c2ccccc2)c2ccccc2)C1=O [Compound 103, N-(((3S,5S)-1-(2,2-diphenylethyl)-3-(3-guanidinopropyl)-2-oxo-1,4-diazepan-5-yl)methyl)naphthalene-2-sulfonamide]
CN(C[C@@H]1CCN(CC(c2ccccc2)c2ccccc2)C(=O)[C@H](CCCN)N1)C(=O)c1ccc2cc(Br)ccc2c1 [Compound 104, N-(((3S,5S)-3-(3-aminopropyl)-1-(2,2-diphenylethyl)-2-oxo-1,4-diazepan-5-yl)methyl)-6-bromo-N-methyl-2-naphthamide]
CN1[C@H](CNC(=O)c2ccc3cc(Br)ccc3c2)CCN(CC(c2ccccc2)c2ccccc2)C(=O)[C@@H]1CCCN [Compound 105, N-(((3S,5S)-3-(3-aminopropyl)-1-(2,2-diphenylethyl)-4-methyl-2-oxo-1,4-diazepan-5-yl)methyl)-6-bromo-2-naphthamide]
N=C(N)NCCC[C@@H]1N[C@H](CNC(=O)c2ccc3ccccc3c2)CCN(CC(c2ccccc2)c2ccccc2)C1=O [Compound 107, N-(((3S,5S)-1-(2,2-diphenylethyl)-3-(3-guanidinopropyl)-2-oxo-1,4-diazepan-5-yl)methyl)-2-naphthamide]
N=C(N)NCCC[C@@H]1N[C@H](CNC(=O)c2ccc(-c3ccccc3)cc2)CCN(CC(c2ccccc2)c2ccccc2)C1=O [Compound 108, N-(((3S,5S)-1-(2,2-diphenylethyl)-3-(3-guanidinopropyl)-2-oxo-1,4-diazepan-5-yl)methyl)biphenyl-4-carboxamide]
N=C(N)NCCC[C@@H]1N[C@H](CNC(=O)c2cnc3ccccc3c2)CCN(CC(c2ccccc2)c2ccccc2)C1=O [Compound 109, N-(((3S,5S)-1-(2,2-diphenylethyl)-3-(3-guanidinopropyl)-2-oxo-1,4-diazepan-5-yl)methyl)quinoline-3-carboxamide]
N=C(N)NCCC[C@@H]1N[C@H](CNC(=O)c2cccc(Oc3ccccc3)c2)CCN(CC(c2ccccc2)c2ccccc2)C1=O [Compound 111, N-(((3S,5S)-1-(2,2-diphenylethyl)-3-(b3-guanidinopropyl)-2-oxo-1,4-diazepan-5-yl)methyl)-3-phenoxybenzamide]
N=C(N)NCCC[C@@H]1N[C@H](CNC(=O)c2cc3ccccc3[nH]2)CCN(CC(c2ccccc2)c2ccccc2)C1=O [Compound 113, N-(((3S,5S)-1-(2,2-diphenylethyl)-3-(3-guanidinopropyl)-2-oxo-1,4-diazepan-5-yl)methyl)-1H-indole-2-carboxamide]
CC(C)(C)c1ccc(C(=O)NC[C@@H]2CCN(CC(c3ccccc3)c3ccccc3)C(=O)[C@H](CCCNC(=N)N)N2)cc1 [Compound 114, 4-tert-butyl-N-(((3S,5S)-1-(2,2-diphenylethyl)-3-(3-guanidinopropyl)-2-oxo-1,4-diazepan-5-yl)methyl)benzamide]
COc1c(C(=O)NC[C@@H]2CCN(CC(c3ccccc3)c3ccccc3)C(=O)[C@H](CCCNC(=N)N)N2)ccc2ccccc12 [Compound 115, N-(((3S,5S)-1-(2,2-diphenylethyl)-3-(3-guanidinopropyl)-2-oxo-1,4-diazepan-5-yl)methyl)-1-methoxy-2-naphthamide]
CN(C)C(=N)NCCC[C@@H]1N[C@H](CNC(=O)c2ccc3ccccc3c2)CCN(CC(c2ccccc2)c2ccccc2)C1=O [Compound 117, N-(((3S,5S)-3-(3-(3,3-dimethylguanidino)propyl)-1-(2,2-diphenylethyl)-2-oxo-1,4-diazepan-5-yl)methyl)-2-naphthamide]
CC(=O)N[C@@H](Cc1c[nH]cn1)C(=O)N[C@@H](Cc1ccccc1)[C@@H]1CCN(CCc2c[nH]c3ccccc23)C(=O)[C@H](CCCNC(=N)N)N1 [Compound 118, (S)—N—((S)-1-((3S,5S)-1-(2-(1H-indol-3-yl)ethyl)-3-(3-guanidinopropyl)-2-oxo-1,4-diazepan-5-yl)-2-phenylethyl)-2-acetamido-3-(1H-imidazol-4-yl)propanamide]
Cc1ccc(/C=C/C(=O)NC[C@@H]2CCN(CC(c3ccccc3)c3ccccc3)C(=O)[C@H](CCCN)N2)cc1 [Compound 120, (E)-N-(((3S,5S)-3-(3-aminopropyl)-1-(2,2-diphenylethyl)-2-oxo-1,4-diazepan-5-yl)methyl)-3-p-tolylacrylamide]
NCCC[C@@H]1N[C@H](CNC(=O)/C=C/c2ccc(F)cc2)CCN(CC(c2ccccc2)c2ccccc2)C1=O [Compound 121, (E)-N-(((3S,5S)-3-(3-aminopropyl)-1-(2,2-diphenylethyl)-2-oxo-1,4-diazepan-5-yl)methyl)-3-(4-fluorophenyl)acrylamide]
NCCC[C@@H]1N[C@H](CNC(=O)c2ccc3cc(F)ccc3c2)CCN(CC(c2ccccc2)c2ccccc2)C1=O [Compound 122, N-(((3S,5S)-3-(3-aminopropyl)-1-(2,2-diphenylethyl)-2-oxo-1,4-diazepan-5-yl)methyl)-6-fluoro-2-naphthamide]
NCCC[C@@H]1N[C@H](CNC(=O)c2ccc(Cl)c(Cl)c2)CCN(CC(c2ccccc2)c2ccccc2)C1=O [Compound 123]
O=C(NC[C@@H]1CCN(CC(c2ccccc2)c2ccccc2)C(=O)[C@H](CCCNC2CCCCC2)N1)c1ccc2ccccc2c1 [Compound 124, N-(((3S,5S)-3-(3-(cyclohexylamino)propyl)-1-(2,2-diphenylethyl)-2-oxo-1,4-diazepan-5-yl)methyl)-2-naphthamide]
N=C(N)NCCC[C@@H]1N[C@H](CNC(=O)c2ccc3ccccc3c2)CCN(c2ccc3ccccc3c2)C1=O [Compound 125, N-(((3S,5S)-3-(3-guanidinopropyl)-1-(naphthalen-2-yl)-2-oxo-1,4-diazepan-5-yl)methyl)-2-naphthamide]
N=C(N)NCCC[C@@H]1N[C@H](CNC(=O)c2ccc3ccccc3c2)CCN(CC2c3ccccc3-c3ccccc32)C1=O [Compound 126, N-(((3S,5S)-1-((9H-fluoren-9-yl)methyl)-3-(3-guanidinopropyl)-2-oxo-1,4-diazepan-5-yl)methyl)-2-naphthamide]
